The source of these data is patent US10383831B2, “2,4,6-trialkoxystryl aryl sulfones, sulfonamides and carboxamides, and methods of preparation and use” (Temple University—Of The Commonwealth System Of Higher …, priority 2015, dated 2019).

What all share (type): cell-based
The subject of data set [1] is K562 (chronic myelogenous leukaemia). In words: Cytotoxicity assay, K562 tumor cells. Conditions: Homo sapiens, 96 hours treatment. As to the method: (§1) The effect of the compounds of the invention on tumor cells was determined by the assay described by Latham et al., Oncogene 12:827-837 (1996). Tumor cells K562 (chronic myelogenous leukaemia) or DU145 (prostate cancer) were plated in 12-well dishes at a cell density of 2.5×10^4 cells well. The plated cells were treated 24 hours later with a compound of the invention dissolved in DMSO at multiple concentrations ranging from 0.001 to 10 μM. The plates were examined 96 hours later under an inverted microscope, Olympus CK-2 using a 10× objective, and compound activity was noted by physical observation. When necessary, the total number of viable cells was determined by trypsinizing the wells and counting the number of viable cells, as determined by trypan blue exclusion, using a hemacytometer.

The next data set has as its system DU145 (prostate cancer). In words: Cytotoxicity assay, DU145 tumor cells. Conditions: Homo sapiens, DU-145, 96 hours treatment. As to the method:
as §1

The next data set concerns tumor cell lines. In words: Cytotoxicity assay, comparison across the cell lines listed in Table 18. Conditions: across a wide range of tumor cell lines. As to the method:
(§2) Cells of the cell lines listed in Table 18 (1×10^5) were plated into 6-well dishes. Twenty-four hours later, the compound of Example 1, i.e., (Z)-ethyl 3-((2-methoxy-5-(((E)-2,4,6-trimethoxystyrylsulfonyl)methyl) phenyl)amino)acrylate, or the compound of Comparative Example 1, i.e., sodium (E)-2-(5-((2,4,6-trimethoxystyrylsulfonyl)methyl)-2-methoxyphenylamino) acetate (rigosertib) was added at different concentrations over a 4 log dilution (0.001 to 10 μM). The total number of viable cells was determined after 96 hours of continuous treatment by staining with trypan blue and counting the number of non-staining cells (viable) remaining in each well using a hemacytometer. The percentage of viable cells remaining was calculated as follows: # viable cells (compound treated)/# viable cells (DMSO treated)*100. The GI50 (the concentration of drug resulting in 50% net loss of growth inhibition) was determined.

The next data set concerns MIA-PaCa-2. In words: Cytotoxicity assay (viable cell count, trypan blue), MIA-PaCa-2. Conditions: MIA-PaCa-2, Pancreatic; 96 hours continuous treatment. As for the experimental part: as §2
Another data set concerns DAUDI. In words: Cytotoxicity assay (viable cell count, trypan blue), DAUDI. As to conditions: B-Cell Lymphoma, 96 hours continuous treatment. As to the method:
as §2

A further data set deals with MOLT-4. In words: Cytotoxicity assay (viable cell count, trypan blue), MOLT-4. Conditions: MOLT-4, T-Cell Lymphoma; 96 hours continuous treatment. As for the experimental part:
as §2

Another data set deals with UM-UC-3. In words: Cytotoxicity assay (viable cell count, trypan blue), UM-UC-3. As to conditions: UM-UC-3, Bladder; 96 hours continuous treatment. As for the experimental part:
as §2

A further data set relates to 2008. In words: Cytotoxicity assay (viable cell count, trypan blue), 2008. Conditions: 2008, Ovarian; 96 hours continuous treatment. As to the method:
as §2

In another data set the test system is HCT-15. In words: Cytotoxicity assay (viable cell count, trypan blue), HCT-15. As to conditions: HCT-15, Colo-Rectal; 96 hours continuous treatment. As to the method: as §2
The test system of the next data set is HT-29. In words: Cytotoxicity assay (viable cell count, trypan blue), HT-29. Conditions: HT-29, Colo-Rectal; 96 hours continuous treatment. As to the method: as §2
The next data set has as its system 5367. In words: Cytotoxicity assay (viable cell count, trypan blue), 5367. As to conditions: 5367, Bladder; 96 hours continuous treatment. As for the experimental part: as §2
The subject of another data set is A549. In words: Cytotoxicity assay (viable cell count, trypan blue), A549. Conditions: A549, Non-Small Cell Lung Carcinoma; 96 hours continuous treatment. As for the experimental part:
as §2

The next data set has as its system DU145. In words: Cytotoxicity assay (viable cell count, trypan blue), DU145. Conditions: DU145, Prostate; 96 hours continuous treatment. As to the method: as §2
The next data set deals with K562. In words: Cytotoxicity assay (viable cell count, trypan blue), K562. Conditions: K562, Chronic Myelogenous Leukemia; 96 hours continuous treatment. As for the experimental part:
as §2

The next data set concerns T-24. In words: Cytotoxicity assay (viable cell count, trypan blue), T-24. Conditions: T-24, Bladder; 96 hours continuous treatment. As for the experimental part:
as §2

For a further data set, the system named is H1299. In words: Cytotoxicity assay (viable cell count, trypan blue), H1299. Conditions: H1299, Non-Small Cell Lung Carcinoma; 96 hours continuous treatment. As to the method:
as §2

A further data set relates to GRANTA-519. In words: Cytotoxicity assay (viable cell count, trypan blue), GRANTA-519. Conditions: GRANTA-519, Mantle Cell Lymphoma; 96 hours continuous treatment. As to the method:
as §2

The test system of another data set is MDA-MB-231. In words: Cytotoxicity assay (viable cell count, trypan blue), MDA-MB-231. As to conditions: MDA-MB-231, Breast; 96 hours continuous treatment. As to the method:
as §2

In the next data set the test system is CEM. In words: Cytotoxicity assay (viable cell count, trypan blue), CEM. As to conditions: T-Cell Lymphoma, 96 hours continuous treatment. As for the experimental part: as §2
The next data set deals with Z1385. In words: Cytotoxicity assay (viable cell count, trypan blue), Z1385. As to conditions: Z1385, Mantle Cell Lymphoma; 96 hours continuous treatment. As for the experimental part: as §2
The next data set deals with HCT-116. In words: Cytotoxicity assay (viable cell count, trypan blue), HCT-116. Conditions: HCT-116, Colo-Rectal; 96 hours continuous treatment. As to the method:
as §2

A further data set has as its system PC-3. In words: Cytotoxicity assay (viable cell count, trypan blue), PC-3. Conditions: PC-3, Prostate; 96 hours continuous treatment. As for the experimental part: as §2
Another data set relates to RS4; 11. In words: Cytotoxicity assay (viable cell count, trypan blue), RS4; 11. As to conditions: 11, ALL-B-Cell Precursor, 96 hours continuous treatment. As for the experimental part:
as §2

A further data set concerns N417. In words: Cytotoxicity assay (viable cell count, trypan blue), N417. As to conditions: N417, Small Cell Lung Carcinoma; 96 hours continuous treatment. As to the method:
as §2

The next data set concerns WM1617. In words: Cytotoxicity assay (viable cell count, trypan blue), WM1617. Conditions: WM1617, Melanoma; 96 hours continuous treatment. As for the experimental part: as §2
The subject of the next data set is Caov-3. In words: Cytotoxicity assay (viable cell count, trypan blue), Caov-3. As to conditions: Caov-3, Ovarian; 96 hours continuous treatment. As for the experimental part:
as §2

In the case of `C=CC(=O)Nc1cc(CS(=O)(=O)/C=C/c2c(OC)cc(OC)cc2OC)ccc1OC` [Ex. 201, (E)-N-(2-methoxy-5-(((2,4,6-trimethoxystyryl)sulfonyl)methyl)phenyl)acrylamide], the IC50 (in data set [1]; with DU145 (prostate cancer)) was 0.75 µM in each case.
`COc1cc(OC)c(/C=C/S(=O)(=O)Cc2ccc(OC)c(NC(=O)/C=C\C(=O)O)c2)c(OC)c1` [Ex. 171, (Z)-4-((2-methoxy-5-(((E)-2,4,6-trimethoxystyrylsulfonyl)methyl)phenyl)amino)-4-oxobut-2-enoic acid]: the IC50 (in [1]; with DU145 (prostate cancer)) was 2 µM throughout.
For the compound `CCOC(=O)/C=C\Nc1cc(CS(=O)(=O)/C=C/c2c(OC)cc(OC)cc2OC)ccc1OC` [(Z)-ethyl 3-((2-methoxy-5-(((E)-2,4,6-trimethoxystyrylsulfonyl)methyl)phenyl)amino)acrylate], the “fold more cytotoxic than Rigosertib” value in the data set on tumor cell lines was 10-100 fold.
Turning to `COC(=O)/C=C\C(=O)Nc1cc(CS(=O)(=O)/C=C/c2c(OC)cc(OC)cc2OC)ccc1OC` [Ex. 176, (Z)-methyl 4-((2-methoxy-5-(((E)-2,4,6-trimethoxystyrylsulfonyl)methyl)phenyl)amino)-4-oxobut-2-enoate], the results for the half-inhibitory concentration (IC50) (in [1]; in the data set on DU145 (prostate cancer)) were 0.25 µM and 2 µM, respectively.
The matching figures for `COC(=O)/C=C\Nc1cc(CS(=O)(=O)/C=C/c2c(OC)cc(OC)cc2OC)ccc1OC` [Ex. 3, (Z)-methyl 3-((2-methoxy-5-(((E)-2,4,6-trimethoxystyrylsulfonyl)methyl)phenyl)amino) acrylate]: 0.004 µM and 0.004 µM.
On the same counts, the results for `COc1cc(OC)c(/C=C/S(=O)(=O)Cc2ccc(OC)c(N/C=C\C(C)=O)c2)c(OC)c1` [Ex. 2, (Z)-4-((2-Methoxy-5-(((E)-2,4,6-trimethoxystyrylsulfonyl)methyl)phenyl)amino)but-3-en-2-one] are 0.1 µM and 0.1 µM.
Compound `COc1cc(OC)c(/C=C/S(=O)(=O)Cc2ccc(OC)c(N/C=C\C(=O)c3cc(OC)c(OC)c(OC)c3)c2)c(OC)c1` [Ex. 5, (Z)-1-(3,4,5-trimethoxyphenyl)-3-((2-methoxy-5-(((E)-2,4,6-trimethoxystyrylsulfonyl)methyl)phenyl)amino) prop-2-en-1-one] came in with an IC50 in the data set on DU145 (prostate cancer) of 0.009 µM.
`CCOC(=O)/C=C/CNc1cc(CS(=O)(=O)/C=C/c2c(OC)cc(OC)cc2OC)ccc1OC` [Ex. 181, (E)-Ethyl 4-((2-methoxy-5-(((E)-2,4,6-trimethoxystyrylsulfonyl)methyl)phenyl)amino)but-2-enoate]: the IC50 (in [1]; in the data set with DU145 (prostate cancer)) was 0.25 µM throughout.
Take `COc1cc(OC)c(/C=C/S(=O)(=O)Cc2ccc(OC)c(NC(=O)/C=C/C(=O)O)c2)c(OC)c1` [Ex. 186, (E)-4-((2-methoxy-5-(((E)-2,4,6-trimethoxystyrylsulfonyl)methyl)phenyl)amino)-4-oxobut-2-enoic acid]: the IC50 (in data set [1]; in the data set on DU145 (prostate cancer)) was 2 µM each time.
On to `C#CCN(CC#C)c1cc(CS(=O)(=O)/C=C/c2c(OC)cc(OC)cc2OC)ccc1OC` [Ex. 161, (E)-2-methoxy-N,N-di(prop-2-yn-1-yl)-5-(((2,4,6-trimethoxystyryl)sulfonyl)-methyl)aniline], for which the IC50 (in data set [1]; in the data set with DU145 (prostate cancer)) was 2.5 µM each time.
In the case of `COc1cc(OC)c(/C=C/S(=O)(=O)Cc2ccc(OC)c(N/C=C\C(=O)c3cc(OC)c(OC)c(OC)c3Br)c2)c(OC)c1` [Ex. 8, (Z)-1-(2-bromo-3,4,5-trimethoxyphenyl)-3-((2-methoxy-5-(((E)-2,4,6-trimethoxystyrylsulfonyl)methyl)phenyl)amino)prop-2-en-1-one], the IC50 (in data set [1]; in the data set with DU145 (prostate cancer)) was 0.075 µM throughout.
For the compound `COc1cc(OC)c(/C=C/S(=O)(=O)Cc2ccc(OC)c(N/C=C\C(=O)c3cc(OC)c(OC)c(OC)c3Cl)c2)c(OC)c1` [Ex. 7, (Z)-1-(2-chloro-3,4,5-trimethoxyphenyl)-3-((2-methoxy-5-(((E)-2,4,6-trimethoxystyrylsulfonyl)methyl)phenyl)amino)prop-2-en-1-one], the half-maximal inhibitory concentration (IC50) (in data set [1]; in the data set with DU145 (prostate cancer)) was 0.05 µM in each case.
With `COc1cc(OC)c(/C=C/S(=O)(=O)Cc2ccc(OC)c(NCC(=O)O)c2)c(OC)c1` [Comparative Example 1, Sodium (E)-2-(5-((2,4,6-trimethoxystyrylsulfonyl)methyl)-2-methoxyphenylamino) acetate, reference compound], the GI50 was determined as 0.15 µM in the data set with MIA-PaCa-2; 0.075 µM in the data set with DAUDI; 0.04 µM in the data set on MOLT-4; 0.05 µM in the data set on UM-UC-3; 0.1 µM in the data set with 2008; 0.2 µM with HCT-15. In addition, the 50% growth inhibitory concentration (GI50) in the data set with HT-29 came out at 0.25 µM; in the data set on 5367, 0.1 µM; in the data set on A549, 0.075 µM; with DU145, 0.15 µM; with K562, 0.12 µM; in the data set with T-24 it was 0.07 µM. For the same compound, the GI50 was found to be 0.2 µM in the data set with H1299; 0.04 µM with GRANTA-519; 0.09 µM in the data set on MDA-MB-231; 0.04 µM in the data set with CEM; 0.04 µM in the data set on Z1385; 0.1 µM with HCT-116. In addition, the GI50 worked out at 0.075 µM in the data set on PC-3; 0.075 µM with RS4; 11; 0.1 µM in the data set with N417; 0.3 µM in the data set with WM1617; 0.15 µM with Caov-3.
Regarding `COc1ccc(C(=O)/C=C\Nc2cc(CS(=O)(=O)/C=C/c3c(OC)cc(OC)cc3OC)ccc2OC)cc1` [Ex. 4, (Z)-1-(4-methoxyphenyl)-3-((2-methoxy-5-(((E)-2,4,6-trimethoxystyrylsulfonyl)methyl)phenyl)amino)prop-2-en-1-one], the half-inhibitory concentration (IC50) (in [1]; in the data set with DU145 (prostate cancer)) was 0.05 µM each time.
For `CCOC(=O)C(=CNc1cc(CS(=O)(=O)/C=C/c2c(OC)cc(OC)cc2OC)ccc1OC)C(=O)OCC` [Ex. 191, (E)-diethyl-2-(((2-methoxy-5-(((2,4,6-trimethoxystyryl)sulfonyl)methyl)phenyl)-amino)methylene)malonate], the IC50 (in data set [1]; in the data set with DU145 (prostate cancer)) was 2 µM throughout.

The term IC50 denotes the point on the concentration scale where inhibition reaches its midpoint. The GI50 is the concentration giving 50% growth inhibition. A high value points to less potent growth inhibition.
